Legend:
Settings in all cases: Preemergence
sugar beet = test: Test B pre/postemergence sugar beet; type: in vivo, Beta vulgaris
Method in brief: (§1)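 Response is a visual 0-to-10 score relative to untreated plants, where 0 means no effect and 10 means complete control, taken twelve to sixteen days after application. Treatments went onto soil at planting and onto foliage of 1- to 4-leaf plants, using a surfactant-containing non-phytotoxic solvent.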

corn = test: Test B pre/postemergence corn; type: in vivo, Zea mays
Method in brief: as §1

blackgrass = test: Test B pre/postemergence blackgrass; type: in vivo, Alopecurus myosuroides
Method in brief: as §1

cocklebur = test: Test B pre/postemergence cocklebur; type: in vivo, Xanthium strumarium
Method in brief: as §1

rape = test: Test B pre/postemergence rape; type: in vivo, Brassica napus
Method in brief: as §1

bedstraw = test: Test B pre/postemergence bedstraw; type: in vivo, Galium aparine
Method in brief: as §1

velvetleaf = test: Test B pre/postemergence velvetleaf; type: in vivo, Abutilon theophrasti
Method in brief: as §1

crabgrass = test: Test B pre/postemergence crabgrass; type: in vivo, Digitaria sanguinalis
Method in brief: as §1

wild oat = test: Test B pre/postemergence wild oat; type: in vivo, Avena fatua
Method in brief: as §1

soybean = test: Test B pre/postemergence soybean; type: in vivo, Glycine max
Method in brief: as §1

morningglory = test: Test B pre/postemergence morningglory; type: in vivo, Ipomoea hederacea
Method in brief: as §1

purple nutsedge = test: Test B pre/postemergence purple nutsedge; type: in vivo, Cyperus rotundus
Method in brief: as §1

giant foxtail = test: Test B pre/postemergence giant foxtail; type: in vivo, Setaria faberii
Method in brief: as §1

surinam grass = test: Test B pre/postemergence surinam grass; type: in vivo, Brachiaria decumbens
Method in brief: as §1

wheat = test: Test B pre/postemergence wheat; type: in vivo, Triticum aestivum
Method in brief: as §1

pigweed = test: Test B pre/postemergence pigweed; type: in vivo, Amaranthus retroflexus
Method in brief: as §1

[1] = Rate 62 g/ha, scale of 0 to 10 where 0 is no effect and 10 is complete control
[2] = Rate 125 g/ha, scale of 0 to 10 where 0 is no effect and 10 is complete control
[3] = Rate 250 g/ha, scale 0 (no effect) to 10 (complete control)
[4] = Rate 500 g/ha, scale 0 to 10 (0 no effect, 10 complete control)

SMILES: CC(C)N(C(=O)n1oc(=O)n(C(C)C(=S)N(C)C)c1=O)c1ccc(Cl)cc1 (stereo not drawn) [Compound 733]
- Sugarbeets plant response rating (sugar beet; [1]): 0
- Plant response rating, Sugarbeets (sugar beet; [2]): 0
- Sugarbeets plant response rating (sugar beet; [3]): 0
- Sugarbeets plant response rating (sugar beet; [4]): 0
- Corn plant response rating (corn; [1]): 0
- Plant response rating, Corn (corn; [2]): 0
- Corn plant response rating (corn; [3]): 0
- Corn plant response rating (corn; [4]): 0
- Blackgrass plant response rating (blackgrass; [1]): 4
- Plant response rating, Blackgrass (blackgrass; [2]): 7
- Blackgrass plant response rating (blackgrass; [3]): 8
- Blackgrass plant response rating (blackgrass; [4]): 10
- Cocklebur plant response rating (cocklebur; [1]): 0
- Plant response rating, Cocklebur (cocklebur; [2]): 0
- Cocklebur plant response rating (cocklebur; [3]): 0
- Cocklebur plant response rating (cocklebur; [4]): 0
- Rape plant response rating (rape; [1]): 0
- Plant response rating, Rape (rape; [2]): 0
- Rape plant response rating (rape; [3]): 3
- Rape plant response rating (rape; [4]): 5
- Bedstraw plant response rating (bedstraw; [1]): 0
- Plant response rating, Bedstraw (bedstraw; [2]): 0
- Bedstraw plant response rating (bedstraw; [3]): 0
- Bedstraw plant response rating (bedstraw; [4]): 0
- Velvetleaf plant response rating (velvetleaf; [1]): 0
- Plant response rating, Velvetleaf (velvetleaf; [2]): 0
- Velvetleaf plant response rating (velvetleaf; [3]): 0
- Velvetleaf plant response rating (velvetleaf; [4]): 1
- Crabgrass plant response rating (crabgrass; [1]): 2
- Plant response rating, Crabgrass (crabgrass; [2]): 5
- Crabgrass plant response rating (crabgrass; [3]): 9
- Crabgrass plant response rating (crabgrass; [4]): 9
- Wild oats plant response rating (wild oat; [1]): 2
- Plant response rating, Wild oats (wild oat; [2]): 2
- Wild oats plant response rating (wild oat; [3]): 2
- Wild oats plant response rating (wild oat; [4]): 8
- Soybean plant response rating (soybean; [1]): 0
- Plant response rating, Soybean (soybean; [2]): 0
- Soybean plant response rating (soybean; [3]): 0
- Soybean plant response rating (soybean; [4]): 0
- Morningglory plant response rating (morningglory; [1]): 1
- Plant response rating, Morningglory (morningglory; [2]): 1
- Morningglory plant response rating (morningglory; [3]): 2
- Morningglory plant response rating (morningglory; [4]): 2
- Nutsedge plant response rating (purple nutsedge; [1]): 0
- Plant response rating, Nutsedge (purple nutsedge; [2]): 0
- Nutsedge plant response rating (purple nutsedge; [3]): 0
- Giant foxtail plant response rating (giant foxtail; [1]): 3
- Plant response rating, Giant foxtail (giant foxtail; [2]): 6
- Giant foxtail plant response rating (giant foxtail; [3]): 9
- Giant foxtail plant response rating (giant foxtail; [4]): 9
- B. signalgrass plant response rating (surinam grass; [1]): 6
- Plant response rating, B. signalgrass (surinam grass; [2]): 6
- B. signalgrass plant response rating (surinam grass; [3]): 8
- B. signalgrass plant response rating (surinam grass; [4]): 10
- Wheat plant response rating (wheat; [1]): 0
- Plant response rating, Wheat (wheat; [2]): 0
- Wheat plant response rating (wheat; [3]): 0
- Wheat plant response rating (wheat; [4]): 0
- Redroot pigweed plant response rating (pigweed; [1]): 0
- Plant response rating, Redroot pigweed (pigweed; [2]): 0
- Redroot pigweed plant response rating (pigweed; [3]): 5
- Redroot pigweed plant response rating (pigweed; [4]): 7

Source: patent US6737383B1, “Herbicidal oxadiazolidines” (priority 1999, dated 2004)
